Experimental data: patent publication US7351737B2, “4-[(8-substituted)-6-chromanoyl]-and 4-[8-substituted)-chroman-6-YL-ethynyl]-benzoic and phenylacetic acids, their esters and salts having cytochrome P450RAI inhibitory activity” (Allergan, Inc., priority 2002, dated 2008)

How the values were obtained:
RARβ = target: T1, RARβ (Homo sapiens, UniProt P10826); assay: ligand binding assay, RARβ; settings: last item of cell, read-out: RAR β Kd
T1 sequence (P10826 1-455): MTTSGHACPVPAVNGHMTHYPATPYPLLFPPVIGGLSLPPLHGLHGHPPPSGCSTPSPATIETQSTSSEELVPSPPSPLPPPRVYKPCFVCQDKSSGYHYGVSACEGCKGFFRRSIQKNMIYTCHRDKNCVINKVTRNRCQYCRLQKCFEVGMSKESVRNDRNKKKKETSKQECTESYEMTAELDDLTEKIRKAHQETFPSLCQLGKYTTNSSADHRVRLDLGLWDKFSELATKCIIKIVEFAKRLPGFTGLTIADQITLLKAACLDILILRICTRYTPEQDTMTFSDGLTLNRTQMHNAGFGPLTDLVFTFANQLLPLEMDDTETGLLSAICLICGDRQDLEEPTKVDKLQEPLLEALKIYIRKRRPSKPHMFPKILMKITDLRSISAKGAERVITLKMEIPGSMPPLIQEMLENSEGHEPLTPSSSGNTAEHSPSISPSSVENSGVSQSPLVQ
Source text: Assays described below measure the ability of a compound to bind to, and/or activate various retinoid receptor subtypes. When in these assays a compound binds to a given receptor subtype and activates the transcription of a reporter gene through that subtype, then the compound is considered an agonist of that receptor subtype. […] In the below described assays the ability of the compounds to bind to RARα, RARβ, RARγ, RXRα, RXRβ and RXRγ receptors, and the ability or inability of the compounds to activate transcription of a reporter gene through these receptor subtypes can be tested.
A holoreceptor transactivation assay and a ligand binding assay which measure the antagonist/agonist like activity of the compounds of the invention, or their ability to bind to the several retinoid receptor subtypes, respectively, are described in published PCT Application No. WO WO93/11755 (particularly on pages 30-33 and 37-41) published on Jun. 24, 1993, the specification of which is also incorporated herein by reference. A detailed experimental procedure for holoreceptor transactivations has been described by Heyman et al. Cell 68, 397-406, (1992); Allegretto et al. J. Biol. Chem. 268, 26625-26633, and Mangelsdorf et al. The Retinoids: Biology, Chemistry and Medicine, pp 319-349, Raven Press Ltd., New York, which are expressly incorporated herein by reference. The results obtained in this assay are expressed in EC50 numbers, as they are also in the chimeric receptor transactivation assay. The results of ligand binding assay are expressed in Kd numbers. (See Cheng et al. Biochemical Pharmacology Vol. 22 pp 3099-3108, expressly incorporated herein by reference.)
The results of the ligand binding assay for several preferred compounds of the invention are included in Table 1.

P450RAI-1 = target: T2, P450RAI-1 (Homo sapiens, UniProt O43174); assay: P450RAI-1 cell-based inhibitor assay ([3H]-RA metabolism, intact cells); settings: P450RAI-1 stably transfected HeLa cells, 3 hours at 37° C., all-trans-RA metabolism; read-out: P450RAI INHIBITION DATA RAI-1 Intact cells IC50
T2 construct: expressed in transfected cells; host or cells: HeLa
T2 sequence (O43174 1-497): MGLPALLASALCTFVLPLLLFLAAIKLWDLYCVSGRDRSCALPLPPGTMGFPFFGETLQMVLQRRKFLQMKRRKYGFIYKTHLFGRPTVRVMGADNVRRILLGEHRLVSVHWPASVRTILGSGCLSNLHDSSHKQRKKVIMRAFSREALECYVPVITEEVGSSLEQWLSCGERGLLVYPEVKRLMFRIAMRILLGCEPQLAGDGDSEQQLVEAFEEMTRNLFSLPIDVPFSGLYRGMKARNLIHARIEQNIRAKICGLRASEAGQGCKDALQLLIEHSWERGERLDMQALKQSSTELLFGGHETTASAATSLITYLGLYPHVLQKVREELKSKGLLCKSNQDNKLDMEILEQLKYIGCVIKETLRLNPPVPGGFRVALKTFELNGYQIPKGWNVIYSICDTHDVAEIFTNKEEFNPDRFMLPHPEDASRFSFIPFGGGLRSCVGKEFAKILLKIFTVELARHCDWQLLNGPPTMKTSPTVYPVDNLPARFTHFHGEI
Protocol: FIG. 1 is a schematic representation of the P450RAI cell based assay utilized to evaluate the ability of the compounds of the invention to inhibit the Cytochrome P450RAI enzyme.
P450RAI-1 and P450RAI-2 Cell-Based Inhibitor Assay:
P450RAI-1 stably transfected HeLa cells, or P450RAI-2 stably transfected HeLa cells, as applicable, are maintained in […] tissue culture dishes in Modified Eagle's Medium (MEM) containing 10% Fetal Bovine Serum (FBS) and 100 μg/ml hygromycin. Exponentially growing cells are harvested by incubating in trypsin. Cells are then washed with 1X Phosphate Buffered Saline (PBS) and plated in a 48-well plate at 5×10^5 cells in 0.2 ml MEM medium containing 10% FBS and 0.05 μCi [^3H]-RA in the presence or absence of increasing concentrations of the test compounds. The compounds are diluted in 100% DMSO and then added in triplicate wells at either 10, 1 or 0.1 μM final concentration. As a positive control for RA metabolism inhibition, cells are also incubated with ketoconazole at 100, 10 and 1 μM. Cells are incubated for 3 hours at 37° C. The retinoids are then extracted using the procedure of Bligh et al. (1959) Canadian Journal of Biochemistry 37, 911-917, modified by using methylenechloride instead of chloroform. The publication Bligh et al. (1959) Canadian Journal of Biochemistry 37, 911-917 is specifically incorporated herein by reference. The water soluble radioactivity is quantified using a β-scintillation counter. IC50 values represent the concentration of inhibitor required to inhibit all-trans-RA metabolism by 50 percent and are derived manually from log-transformed data.

Structure (SMILES) | Kd (RARβ) [µM] | IC50 (P450RAI-1) [nM]
CC(=O)OCOC(=O)Cc1ccc(OC(=O)c2cc(C#N)c3c(c2)C(C)(C)CC(C)(C)O3)cc1F [Compound 33, 8-Cyano-2,2,4,4-tetramethyl-chroman-6-carboxylic acid 4-acetoxymethoxycarbonylmethyl-3-fluoro-phenyl ester] | > 10 | 100
C#Cc1cc(C(=O)Oc2ccc(CC(=O)O)c(F)c2)cc2c1OC(C)(C)CC2(C)C [Compound 4, 8-Ethynyl-2,2,4,4-tetramethyl-chroman-6-carboxylic acid-4-carboxymethyl-3-fluoro-phenyl ester] | 6.56 | 100
C#Cc1cc(C(=O)Oc2ccc(CC(=O)OCC)cc2)cc2c1OC(C)(C)CC2(C)C [Compound 2, 8-Ethynyl-2,2,4,4-tetramethyl-chroman-6-carboxylic acid 4-ethoxycarbonylmethyl-phenyl ester] | > 10 | 6000
CC1(C)CC(C)(C)c2cc(C(=O)Oc3ccc(CC(=O)O)c(F)c3)cc(C#N)c2O1 [Compound 32, 8-Cyano-2,2,4,4-tetramethyl-chroman-6-carboxylic acid-4-carboxymethyl-3-fluoro-phenyl ester] | > 10 | 100
C#Cc1cc(C(=O)Oc2ccc(CC(=O)OCOC(C)=O)cc2)cc2c1OC(C)(C)CC2(C)C [Compound 3, 8-Ethynyl-2,2,4,4-tetramethyl-chroman-6-carboxylic acid 4-acetoxymethoxycarbonylmethyl-phenyl ester] | > 10 | 500
C#CCc1cc(C#Cc2ccc(CC(=O)O)cc2)cc2c1OC(C)(C)CC2(C)C [Compound 49] | > 10 | 18
C#Cc1cc(C#Cc2ccc(CC(=O)O)c(F)c2)cc2c1OC(C)(C)CC2(C)C [Compound 41, [4-(8-Ethynyl-2,2,4,4-tetramethyl-chroman-6-ylethynyl)-2-fluoro-phenyl]-acetic acid] | 4.95 | 4
C#Cc1cc(C#Cc2ccc(CC(=O)O)cc2)cc2c1OC(C)(C)CC2(C)C [Compound 40, [4-(8-Ethynyl-2,2,4,4-tetramethyl-chroman-6-ylethynyl)-phenyl]-acetic acid] | 7.62 | 10
C#Cc1cc(C(=O)Oc2ccc(CC(=O)O)cc2)cc2c1OC(C)(C)CC2(C)C [Compound 1, 8-Ethynyl-2,2,4,4-tetramethyl-chroman-6-carboxylic acid 4-carboxymethyl-phenyl ester] | > 10 | 500
C#Cc1cc(C(=O)Oc2ccc(CC(=O)OCOC(C)=O)c(F)c2)cc2c1OC(C)(C)CC2(C)C [Compound 5, 8-Ethynyl-2,2,4,4-tetramethyl-chroman-6-carboxylic acid 4-acetoxymethoxycarbonylmethyl-3-fluoro-phenyl ester] | 5.55 | 75
